On to `CCOC(=O)C1=C(Nc2cccc(O)c2)OCC1=O`, for which the melting point lay in the range of 210 to 211 °C.

Take `CCOC(=O)C1=C(Nc2ccccc2)OCC1=O`: the melting point lay within 115 to 116 °C.

Take `CCOC(=O)C1=C(Nc2cc(OC)cc(OC)c2)OCC1=O`: the melting point was 145.6 °C.

`CCOC(=O)C1=C(Nc2cccc(Cl)c2)OCC1=O` yielded a melting point of 159.5 °C.

(Values after patent US9205073B2, “Method for treating virus infection using derivative of aniline” (CHINA MEDICAL UNIVERSITY, priority 2014, dated 2015).)
